The assay concerns macular edema. As to the kind of experiment: Case report Example 1: patient with macular edema after central vein occlusion in the left eye, OCT, vision acuity and eye pressure. It is filed as in vivo, human. The text has this: A patient experienced central vein occlusion in their left eye and subsequently suffered macular edema in 2005. Weak drusens were found in both of their eyes. […] The patient received corsteroid injection in the left eye. The macular edema went away for four months. However, the left eye pressure went up to 35-40 mmHg. Eye drops for lowering eye pressure were used to treat the high eye pressure. Within half a year, the patient developed cataract in their left eye and shortly thereafter advanced to a point that their left eye lost most vision and the eye specialist recommended surgery to remove the cataract. At the time of the surgery, it was discovered that the patient's macular edema had come back and it was rather severe. Avastin injection was then employed to treat macular edema. The edema went away for a month but still came back 2-3 months afterwards. At this point, the patient was notified that regular injection would be required for the rest of their life. As shown in the images from Optical Coherence Tomography (OCT) (FIG. 1), macular edema returned three months after the Avastin injection. Such was a repeated phenomenon since 2005, for more than three years. Macular edema re-occurred typically 3 months following Avastin injection. […].

The mark [1] stands for this setting: June 2008, before treatment with the composition, FIG. 1.

As for “Avastin: Avastin injection employed to treat macular edema (anti-VEGF)”, under setting [1], the “ocular pressure three months after injection” value amounted to 35 mmHg and the “vision acuity three months after injection” value was 20/40. For the setting “left eye, intravitreal injection, repeated for more than three years”, the “time to re-occurrence of macular edema following injection” value is ~3 months.

The values above are taken from patent publication US9125940B2, “Compositions and methods for treating macular edema” (priority 2011, dated 2015).
